The nature of test [1]: Antioxidant activity at pH 7.4 by hydroxyl radical scavenging assay. Type of test: functional.
Test [2] concerns DNA. In words: Binding affinity to calf thymus DNA by electronic absorption spectroscopy. As to conditions: Bos taurus. It counts as nucleic-acid assay.
Test [3] has as its system DNA. Put plainly: Binding affinity to calf thymus DNA by fluorescence spectroscopy. Particulars: Bos taurus. Type of test: nucleic-acid assay.

In general, IC50 refers to the concentration that inhibits the measured activity by half. Higher therefore signals lower potency.

In turn, `OC[C@@H](O)[C@@H](O)[C@H](O)[C@H](O)CO` [MANNITOL] came in with an IC50 in test [1] of 9.6 mM.
`O=C(N/N=C1\CC(c2ccc(O)cc2)Oc2cc(O)cc(O)c21)c1ccccc1O` (stereo not drawn): the Kb in test [2] worked out at 1.6 ×10⁴ /M. The compound further came in with a Kq in test [3] of 0.93 ×10⁴ /M.

For the origin of these results see ChEMBL document CHEMBL1158170, “Synthesis, characterization, antioxidant activity and DNA-binding studies of two rare earth(III) complexes with naringenin-2-hydroxy benzoyl hydrazone ligand” (Eur J Med Chem, 2008).
